Data on six molecules can be found in publication PMC9828493, “Design, Synthesis, and in Vitro Evaluation of 4‐(4‐Hydroxyphenyl)piperazine‐Based Compounds Targeting Tyrosinase” (Chemmedchem, 2022).

Where two headings read alike, the source gives them in different places.

For data set [1], the system named is B16F10 cells. Put plainly: Cell viability assay (MTT). The conditions noted are these: 48 h; for cytotoxic effect (MTT): until a concentration of 10 μM. Format: cell-based, Murine. The method, then: Murine melanoma B16F10 cells (CRL‐6475) were cultured as previous reported.[17]
3‐(4,5‐Dimethylthiazol‐2‐yl)‐2,5‐diphenyltetrazolium bromide (MTT) was used to measure the cells viability. Cells were seeded in 96‐well plates for 24 hours with a density of 5x10^3 for well. Cells were then treated for 48 h with compounds (ranging from 4 μM to 100 μM). After incubation at 37 °C and 5 % of CO2, 100 μL of MTT reagent were added to the cells and incubated 3 h at 37 °C. After adding DMSO the absorbance was determined at 560 nm. The amount of living cells in treated samples relative to untreated controls (100 %) provided the cell viability. The mean value and standard deviation (SD) were calculated from triplicate experiments.
different concentrations of compounds (4-100 μM) and their viability was evaluated by MTT assay. Data
represent mean ± SD of triplicate experiments.

For data set [2], the system named is tyrosinase activity in α‐MSH‐stimulated B16F10 cells. Put plainly: Tyrosinase zymography (L-DOPA staining) in α-MSH-stimulated B16F10 cells. Format: cell-based, Murine. The conditions noted are these: Mus musculus, B16-F10, α-MSH (100 nM)-stimulated B16F10 cells, 48 h, read-out: inhibition of tyrosinase activity / melanogenesis.
Protocol: ImageJ software was used to determine the intensity of bands.
A day after seeding the B16F10 cells (6×10^4 cells/mL) the culture medium was substituted by fresh one supplemented with 100 nM α‐MSH.
After incubation for 48 h, cells were washed and lysed using phosphate buffer (25 mM, pH 6.8) containing Triton X‐100 (1 %) and phenylmethyl‐sulfonyl fluoride (0.1 mM). Cellular lysates were centrifugated at 13000 rpm for 20 min at 4 °C. The protein content was determined by Bradford method and BSA was used as standard.
SDS‐polyacrylamide gel electrophoresis was used to resolve the protein extracts previously mixed with 10 mM Tris‐HCl buffer, pH 7.0, containing 1 % SDS, without mercaptoethanol.
After running, gel was rinsed in phosphate buffer (0.1 M, pH 7.0) and equilibrated for 30 min twice. […] Tyrosinase activity was visualized in the gel as dark melanin‐containing bands
Data set [3] in a line: ABTS radical scavenging antioxidant assay. The conditions noted are these: mean ± SD of three independent experiments. The method, then: ABTS [2,20‐azinobis‐(3‐ethylbenzothiazoline‐6‐sulfonic acid)] assay was used to determine the total free radical‐scavenging capacity of compounds. 6‐hydroxy‐2,5,7,8‐tetramethylchromane‐2‐carboxylic acid (Trolox) was used as the reference antioxidant.[15]
The ABTS⋅^+ method is based on the capacity of an antioxidant to scavenge the free ABTS⋅^+. To produce this radical an aqueous mixture of 7 mM ABTS with 2.45 mM potassium persulfate was required.
The ABTS solution was kept in the dark, at room temperature, for 24 h before use. The ABTS⋅^+ mixture was diluted, and each compound (10 μL) was added to solution. After 1 min of incubation the absorbance was recorded at 734 nm. Afterwards the decrease in A734 was calculated and referred to the Trolox standard curve. Antioxidant activity was expressed as concentration of the compound to give a 50 % reduction in the original absorbance (EC50).

For data set [4], the target named is T1, TYR from Agaricus bisporus (AbTYR) (Agaricus bisporus, UniProt C7FF04). Put plainly: Inhibition of monophenolase activity of AbTYR (L-Tyr as substrate). The conditions noted are these: 40 μM (Figure S69). Also noted: purchased Sigma Chemical Co. (St. Louis, MO, USA). Format: biochemical. The method, then:
Mushroom tyrosinase inhibition assay
6.8). […] Subsequently, 0.05 mL of
L-tyrosine or L-DOPA, respectively.
respect to control sample.
positive standard (10–50 μM).
was used for absorbance measurements.
Kinetic analysis of the tyrosinase inhibition

Data set [5] addresses T1, TYR from Agaricus bisporus (AbTYR). Put plainly: Inhibition of diphenolase activity of AbTYR (L-DOPA as substrate).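 For all read-outs here: absorbance measured spectrophotometrically with L-DOPA as substrate, inhibition expressed as percent relative to control sample, IC50 interpolated from dose-response curves.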 The conditions noted are these: for IC50: IC50 [μM]±SD, inhibition of diphenolase activity of AbTYR, L-DOPA substrate, three replicates.
Protocol: (§1) absorbance was measured after 60 or 1 min of incubation time in the reaction mixture containing
(§2) L-tyrosine or L-DOPA, respectively. The inhibitory activity was expressed as inhibition percentage
(§3) calculated by interpolation of the dose-response curves. Kojic acid [5-hydroxy-2-(hydroxymethyl)-
(§4) 4H-pyran-4-one], a fungal secondary metabolite used as skin whitening agent, was employed as a
(§5) positive standard (10–50 μM). A spectrophotometer (Agilent Cary 60 UV-Vis Spectrophotometer)
(§6) The inhibition kinetics on the tyrosinase were studied using Lineweaver-Burk double reciprocal
(§7) plots. The reaction mixture consisted of four different concentrations of the substrate L-DOPA
(§8) (0.6–5 mM), and mushroom tyrosinase in phosphate buffer (0.05 M, pH 6.8). Three different
(§9) concentrations were used for the analysis. Preincubation and measurement time were the same
(§10) as discussed in mushroom tyrosinase inhibition assay. The Michaelis-Menten constant (Km) and
(§11) maximal velocity (Vmax) of tyrosinase were determined by Lineweaver-Burk plots.
The target is the same in data set [6]. Put plainly: Kinetic analysis of AbTYR inhibition (Lineweaver-Burk plots, L-DOPA). The conditions noted are these: L-DOPA 0.6–5 mM, three inhibitor concentrations, phosphate buffer pH 6.8.
Protocol: Kinetics studies were performed in presence of three different concentrations of selected inhibitors, L‐DOPA (0.6–5 mM) and AbTYR in phosphate buffer (0.05 M, pH 6.8).
as §1, §2, §3, §4, §5, §6, §7, §8, §9, §10, §11
For data set [7] the target is unchanged. The arrangement: purchased Sigma Chemical Co. (St. Louis, MO, USA). The conditions noted are these: previous paper; read-out: IC50, inhibition of AbTYR; cited from earlier work.
For data set [8] the following is noted: positive control; read-out: EC50 [μM], antioxidant activity (ABTS); cited from earlier work.

T1 sequence (C7FF04 1-392 limits assumed): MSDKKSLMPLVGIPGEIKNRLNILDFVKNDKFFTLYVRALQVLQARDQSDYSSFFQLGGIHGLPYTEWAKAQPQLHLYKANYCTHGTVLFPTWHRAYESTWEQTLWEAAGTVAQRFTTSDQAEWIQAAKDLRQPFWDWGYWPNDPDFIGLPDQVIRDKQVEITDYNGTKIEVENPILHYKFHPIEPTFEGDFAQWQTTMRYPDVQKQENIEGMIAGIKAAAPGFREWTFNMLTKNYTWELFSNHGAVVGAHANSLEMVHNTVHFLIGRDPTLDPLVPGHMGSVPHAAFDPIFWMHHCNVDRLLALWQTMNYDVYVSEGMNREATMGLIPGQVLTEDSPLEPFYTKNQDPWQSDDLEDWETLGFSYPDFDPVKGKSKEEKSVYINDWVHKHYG

`O=C(c1ccc(Cl)cc1Cl)N1CCN(c2ccc(O)cc2)CC1` [compound 10, (4‐(4‐Hydroxyphenyl)piperazin‐1‐yl)(2,4‐dichlorophenyl)methanone] gave a melting point of 177 to 178 °C. The “cell viability (MTT)” value in data set [1] (until 25 μM) is listed as “good cell viability”. Further, the “cytotoxic effect (MTT)” value in data set [1] was “no cytotoxic effect”. The inhibition at 1 µM in data set [2] (1 μM) is 44%. Moreover, in data set [2] (10 μM), the inhibition at 10 µM stood at 73%. Moreover, in data set [2], the inhibition at 25 µM came to 88%. This molecule came in with an EC50 in data set [3] of 9 ± 0.3 µM. The “inhibitory effect on monophenolase activity of AbTYR” value in data set [4] is listed as “active inhibitors”. Also, half-maximal inhibition in data set [5] (IC50) required 1.5 ± 0.1 µM. In addition, in data set [6], the “mechanism of inhibition of AbTYR” value is “competitive inhibitors”.

For `O=C(CN1CCC(Cc2ccccc2)CC1)N1CCN(c2ccc(O)cc2)CC1` [A, 2‐(4‐benzyl‐1‐piperidinyl)‐1‐[4‐(4‐hydroxyphenyl)piperazin‐1‐yl]ethenone], in data set [7], the IC50 is 3.8 µM.

Consider `Cc1c(C)c2c(c(C)c1O)CCC(C)(C(=O)O)O2` (stereo not drawn) [Trolox, 6‐hydroxy‐2,5,7,8‐tetramethylchromane‐2‐carboxylic acid], for which the EC50 in data set [8] is 13 ± 1.1 µM.

On to `COc1ccccc1C(=O)N1CCN(c2ccc(O)cc2)CC1` [compound 21, [4‐(4‐Hydroxyphenyl)piperazin‐1‐yl](2‐methoxyphenyl)methanone], for which the “cytotoxic effect (MTT)” value in [1] is “no cytotoxic effect”. Also, the EC50 in [3] was 9.2 ± 0.2 µM. In data set [4], the “inhibitory effect on monophenolase activity of AbTYR” value is on record as “active inhibitors”. In data set [5], the “fold more potent than reference compound KA” value was “about 3.5 fold” and the IC50 is 3.5 ± 0.2 µM. In data set [6], the “mechanism of inhibition of AbTYR” value is “competitive inhibitors”.

With `O=c1cc(CO)occ1O` [KA, kojic acid, reference compound], the inhibition at 25 µM in data set [2] was found to be 17%.

In turn, `Oc1ccc(N2CCNCC2)cc1` [compound 1, 4‐(1‐piperazinyl)phenol] gave a 50% inhibitory concentration (IC50) in data set [5] of 28.9 ± 4.9 µM. In addition, the “mechanism of inhibition of AbTYR” value in data set [6] was “competitive inhibitor”.
